Test results: ChEMBL document CHEMBL4507262, “Data for DCP probe A-1596586” (2021)

Tests used:
[1] = target: Mitogen-activated protein kinase kinase kinase 9 (Homo sapiens) (UniProt P80192); conditions: Compound concentration 1000.0 nM
[2] = target: Mitogen-activated protein kinase kinase kinase kinase 4 (Homo sapiens) (UniProt O95819); conditions: Compound concentration 1000.0 nM
[3] = target: Substance-P receptor (Homo sapiens) (UniProt P25103); assay: NK1 (h) Eurofins-Cerep binding assay; set-up: ligand concentration 0.05 nM; conditions: filed as agonist, Compound concentration 10.0 uM
[4] = tested on: Epidermal growth factor receptor (Homo sapiens), P00533 [G719S]; conditions: Compound concentration 1000.0 nM
[5] = target: T1, Alpha-2A adrenergic receptor (Homo sapiens) (UniProt P08913); conditions: Compound concentration 10.0 uM
T1 sequence (whole entry): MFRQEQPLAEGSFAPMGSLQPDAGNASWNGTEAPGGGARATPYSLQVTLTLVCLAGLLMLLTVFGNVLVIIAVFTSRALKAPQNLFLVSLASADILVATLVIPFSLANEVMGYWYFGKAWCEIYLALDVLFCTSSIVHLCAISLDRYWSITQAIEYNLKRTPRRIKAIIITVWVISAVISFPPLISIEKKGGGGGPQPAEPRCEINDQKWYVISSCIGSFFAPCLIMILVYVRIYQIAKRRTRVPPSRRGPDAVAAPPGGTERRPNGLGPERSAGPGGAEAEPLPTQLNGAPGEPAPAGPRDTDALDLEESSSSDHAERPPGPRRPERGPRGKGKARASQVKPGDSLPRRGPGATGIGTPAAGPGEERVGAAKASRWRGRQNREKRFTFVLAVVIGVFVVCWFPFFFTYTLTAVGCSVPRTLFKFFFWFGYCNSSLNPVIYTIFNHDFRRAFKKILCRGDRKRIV

[6] = target: Serine/threonine-protein kinase PRP4 homolog (Homo sapiens) (UniProt Q13523); conditions: Compound concentration 1000.0 nM
[7] = target: 5-hydroxytryptamine receptor 7 (Homo sapiens) (UniProt P34969); assay: 5-HT7 (h) Eurofins-Cerep binding assay; set-up: ligand concentration 4 nM; conditions: filed as agonist, Compound concentration 10.0 uM
5-hydroxytryptamine receptor 7 (Homo sapiens), sequence (P34969 whole entry): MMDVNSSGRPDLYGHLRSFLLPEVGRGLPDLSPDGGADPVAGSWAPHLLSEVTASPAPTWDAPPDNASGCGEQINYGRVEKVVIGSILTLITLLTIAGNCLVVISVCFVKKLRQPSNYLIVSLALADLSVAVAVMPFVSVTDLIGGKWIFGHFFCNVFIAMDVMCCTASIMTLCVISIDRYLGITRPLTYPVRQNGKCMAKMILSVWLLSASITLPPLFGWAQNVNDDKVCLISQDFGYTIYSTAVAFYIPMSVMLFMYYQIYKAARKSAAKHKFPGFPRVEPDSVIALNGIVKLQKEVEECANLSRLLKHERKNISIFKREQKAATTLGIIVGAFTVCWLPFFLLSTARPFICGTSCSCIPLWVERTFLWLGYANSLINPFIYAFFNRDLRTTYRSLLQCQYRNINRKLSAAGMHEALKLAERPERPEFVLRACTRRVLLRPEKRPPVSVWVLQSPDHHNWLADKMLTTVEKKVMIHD

[8] = target: Serine/threonine-protein kinase PAK 2 (Homo sapiens) (UniProt Q13177); conditions: Compound concentration 1000.0 nM
Serine/threonine-protein kinase PAK 2 (Homo sapiens), sequence (Q13177 whole entry): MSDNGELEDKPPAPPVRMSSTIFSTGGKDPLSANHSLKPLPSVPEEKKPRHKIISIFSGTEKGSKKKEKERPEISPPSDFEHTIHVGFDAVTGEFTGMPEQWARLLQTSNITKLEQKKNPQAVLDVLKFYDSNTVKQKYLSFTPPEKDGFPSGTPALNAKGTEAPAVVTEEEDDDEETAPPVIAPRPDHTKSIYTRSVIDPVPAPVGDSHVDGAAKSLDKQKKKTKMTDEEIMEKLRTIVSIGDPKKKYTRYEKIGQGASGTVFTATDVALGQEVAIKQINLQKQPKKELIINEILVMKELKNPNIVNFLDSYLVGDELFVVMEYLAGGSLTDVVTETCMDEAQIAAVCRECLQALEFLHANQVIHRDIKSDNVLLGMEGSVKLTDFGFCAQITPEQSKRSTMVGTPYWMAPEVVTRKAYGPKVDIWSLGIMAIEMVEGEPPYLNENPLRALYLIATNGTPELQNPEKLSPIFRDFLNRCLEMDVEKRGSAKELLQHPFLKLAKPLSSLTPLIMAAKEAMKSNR

[9] = tested on: eIF-2-alpha kinase GCN2 (Homo sapiens), Q9P2K8 [S808G]; conditions: Compound concentration 1000.0 nM
[10] = target: Tyrosine-protein kinase Mer (Homo sapiens) (UniProt Q12866); conditions: Compound concentration 1000.0 nM
[11] = target: Serine/threonine-protein kinase Sgk2 (Homo sapiens) (UniProt Q9HBY8); conditions: Compound concentration 1000.0 nM
[12] = target: Non-receptor tyrosine-protein kinase TYK2 (Homo sapiens) (UniProt P29597); conditions: Compound concentration 1000.0 nM
[13] = target: Phosphatidylinositol 4-phosphate 3-kinase C2 domain-containing subunit beta (Homo sapiens) (UniProt O00750); conditions: Compound concentration 1000.0 nM
[14] = target: T2, Muscarinic acetylcholine receptor M5 (Homo sapiens) (UniProt P08912); assay: M5 (h) Eurofins-Cerep binding assay; set-up: ligand concentration 0.3 nM; conditions: filed as antagonist, Compound concentration 10.0 uM
T2 sequence (whole entry): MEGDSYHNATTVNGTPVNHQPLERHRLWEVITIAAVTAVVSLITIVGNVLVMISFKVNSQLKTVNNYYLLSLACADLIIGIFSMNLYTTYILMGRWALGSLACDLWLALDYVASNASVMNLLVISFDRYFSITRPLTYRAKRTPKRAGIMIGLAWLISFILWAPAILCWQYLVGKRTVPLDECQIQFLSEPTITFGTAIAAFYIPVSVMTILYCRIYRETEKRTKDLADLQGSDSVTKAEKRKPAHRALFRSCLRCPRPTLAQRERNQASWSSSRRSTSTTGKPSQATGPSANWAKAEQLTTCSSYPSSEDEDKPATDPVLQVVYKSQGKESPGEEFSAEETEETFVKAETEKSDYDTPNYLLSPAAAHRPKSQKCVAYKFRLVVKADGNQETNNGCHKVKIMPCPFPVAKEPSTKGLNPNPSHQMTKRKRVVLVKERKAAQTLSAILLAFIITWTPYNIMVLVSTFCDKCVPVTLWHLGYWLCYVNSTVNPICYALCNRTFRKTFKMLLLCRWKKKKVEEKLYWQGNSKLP

[15] = target: Histamine H1 receptor (Homo sapiens) (UniProt P35367); conditions: Compound concentration 10.0 uM
[16] = tested on: ALK tyrosine kinase receptor (Homo sapiens), Q9UM73 [C1156Y]; conditions: Compound concentration 1000.0 nM
[17] = target: MAP kinase-interacting serine/threonine-protein kinase 2 (Homo sapiens) (UniProt Q9HBH9); conditions: Compound concentration 1000.0 nM
[18] = target: Motilin receptor (Homo sapiens) (UniProt O43193); assay: motilin (h Eurofins-Cerep binding assay; set-up: ligand concentration 0.05 nM; conditions: filed as agonist, Compound concentration 10.0 uM
[19] = target: Alpha-1D adrenergic receptor (Homo sapiens) (UniProt P25100); conditions: Compound concentration 10.0 uM
[20] = target: Mitogen-activated protein kinase 13 (Homo sapiens) (UniProt O15264); conditions: Compound concentration 1000.0 nM
Mitogen-activated protein kinase 13 (Homo sapiens), sequence (O15264 whole entry, canonical isoform): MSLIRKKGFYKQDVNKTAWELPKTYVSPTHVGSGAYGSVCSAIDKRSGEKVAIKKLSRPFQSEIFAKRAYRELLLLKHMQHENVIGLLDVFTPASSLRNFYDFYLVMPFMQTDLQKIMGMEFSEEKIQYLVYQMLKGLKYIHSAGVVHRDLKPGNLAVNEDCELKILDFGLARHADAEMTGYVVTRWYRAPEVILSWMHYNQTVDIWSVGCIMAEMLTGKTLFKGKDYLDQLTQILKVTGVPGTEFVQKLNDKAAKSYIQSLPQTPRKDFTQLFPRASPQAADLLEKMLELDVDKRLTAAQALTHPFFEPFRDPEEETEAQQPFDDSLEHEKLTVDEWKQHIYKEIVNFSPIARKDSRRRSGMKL

[21] = target: Phosphatidylinositol 4,5-bisphosphate 3-kinase catalytic subunit gamma isoform (Homo sapiens) (UniProt P48736); conditions: Compound concentration 1000.0 nM
[22] = target: TGF-beta receptor type-2 (Homo sapiens) (UniProt P37173); conditions: Compound concentration 1000.0 nM
[23] = target: Serine/threonine-protein kinase SIK1 (Homo sapiens) (UniProt P57059); conditions: Compound concentration 1000.0 nM
Serine/threonine-protein kinase SIK1 (Homo sapiens), sequence (P57059 whole entry): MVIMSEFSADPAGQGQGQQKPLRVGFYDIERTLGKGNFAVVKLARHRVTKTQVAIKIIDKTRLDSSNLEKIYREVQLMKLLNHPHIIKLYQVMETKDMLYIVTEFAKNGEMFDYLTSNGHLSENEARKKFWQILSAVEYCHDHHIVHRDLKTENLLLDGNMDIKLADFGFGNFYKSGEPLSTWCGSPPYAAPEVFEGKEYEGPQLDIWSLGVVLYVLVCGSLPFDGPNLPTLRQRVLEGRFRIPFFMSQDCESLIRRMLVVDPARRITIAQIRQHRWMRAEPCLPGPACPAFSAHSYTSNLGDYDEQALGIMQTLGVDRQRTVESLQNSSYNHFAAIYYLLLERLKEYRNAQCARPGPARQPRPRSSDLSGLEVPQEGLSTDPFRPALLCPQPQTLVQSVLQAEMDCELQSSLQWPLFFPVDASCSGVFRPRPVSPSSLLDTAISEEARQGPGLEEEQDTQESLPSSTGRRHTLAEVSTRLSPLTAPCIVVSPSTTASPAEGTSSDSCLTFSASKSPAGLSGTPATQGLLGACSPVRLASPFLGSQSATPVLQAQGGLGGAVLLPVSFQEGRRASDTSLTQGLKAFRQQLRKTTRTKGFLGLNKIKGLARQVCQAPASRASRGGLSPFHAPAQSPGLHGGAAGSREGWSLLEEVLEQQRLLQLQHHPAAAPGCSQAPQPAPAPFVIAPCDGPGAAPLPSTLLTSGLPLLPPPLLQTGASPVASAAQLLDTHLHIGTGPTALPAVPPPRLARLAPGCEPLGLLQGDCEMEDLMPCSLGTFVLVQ

[24] = target: Serine/threonine-protein kinase Chk1 (Homo sapiens) (UniProt O14757); conditions: Compound concentration 1000.0 nM
[25] = target: Tyrosine-protein kinase ABL1 (Homo sapiens) (UniProt P00519); conditions: Compound concentration 1000.0 nM
[26] = target: Substance-K receptor (Homo sapiens) (UniProt P21452); assay: NK2 (h) Eurofins-Cerep binding assay; set-up: ligand concentration 0.1 nM; conditions: filed as agonist, Compound concentration 10.0 uM
Substance-K receptor (Homo sapiens), sequence (P21452 whole entry): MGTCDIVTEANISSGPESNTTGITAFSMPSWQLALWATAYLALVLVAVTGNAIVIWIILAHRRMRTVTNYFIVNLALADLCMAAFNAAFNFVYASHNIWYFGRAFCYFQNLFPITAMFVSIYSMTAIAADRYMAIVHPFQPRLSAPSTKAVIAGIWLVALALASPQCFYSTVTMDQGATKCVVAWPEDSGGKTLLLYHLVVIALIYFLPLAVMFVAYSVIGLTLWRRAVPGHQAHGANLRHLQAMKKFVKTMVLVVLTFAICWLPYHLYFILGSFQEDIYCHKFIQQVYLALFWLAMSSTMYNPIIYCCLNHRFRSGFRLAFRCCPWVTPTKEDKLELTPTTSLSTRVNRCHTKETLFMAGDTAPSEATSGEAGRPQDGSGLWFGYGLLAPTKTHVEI

[27] = target: Serine/threonine-protein kinase MRCK gamma (Homo sapiens) (UniProt Q6DT37); conditions: Compound concentration 1000.0 nM
[28] = target: Serine/threonine-protein kinase OSR1 (Homo sapiens) (UniProt O95747); conditions: Compound concentration 1000.0 nM
[29] = target: Ephrin type-A receptor 5 (Homo sapiens) (UniProt P54756); conditions: Compound concentration 1000.0 nM
[30] = target: Receptor tyrosine-protein kinase erbB-4 (Homo sapiens) (UniProt Q15303); conditions: Compound concentration 1000.0 nM
[31] = target: Serine/threonine-protein kinase D3 (Homo sapiens) (UniProt O94806); conditions: Compound concentration 1000.0 nM
[32] = tested on: Tyrosine-protein kinase ABL1 (Homo sapiens), P00519 [T315I]; conditions: Compound concentration 1000.0 nM

Mitogen-activated protein kinase kinase kinase kinase 4 (Homo sapiens), sequence (O95819 2-1239 limits assumed): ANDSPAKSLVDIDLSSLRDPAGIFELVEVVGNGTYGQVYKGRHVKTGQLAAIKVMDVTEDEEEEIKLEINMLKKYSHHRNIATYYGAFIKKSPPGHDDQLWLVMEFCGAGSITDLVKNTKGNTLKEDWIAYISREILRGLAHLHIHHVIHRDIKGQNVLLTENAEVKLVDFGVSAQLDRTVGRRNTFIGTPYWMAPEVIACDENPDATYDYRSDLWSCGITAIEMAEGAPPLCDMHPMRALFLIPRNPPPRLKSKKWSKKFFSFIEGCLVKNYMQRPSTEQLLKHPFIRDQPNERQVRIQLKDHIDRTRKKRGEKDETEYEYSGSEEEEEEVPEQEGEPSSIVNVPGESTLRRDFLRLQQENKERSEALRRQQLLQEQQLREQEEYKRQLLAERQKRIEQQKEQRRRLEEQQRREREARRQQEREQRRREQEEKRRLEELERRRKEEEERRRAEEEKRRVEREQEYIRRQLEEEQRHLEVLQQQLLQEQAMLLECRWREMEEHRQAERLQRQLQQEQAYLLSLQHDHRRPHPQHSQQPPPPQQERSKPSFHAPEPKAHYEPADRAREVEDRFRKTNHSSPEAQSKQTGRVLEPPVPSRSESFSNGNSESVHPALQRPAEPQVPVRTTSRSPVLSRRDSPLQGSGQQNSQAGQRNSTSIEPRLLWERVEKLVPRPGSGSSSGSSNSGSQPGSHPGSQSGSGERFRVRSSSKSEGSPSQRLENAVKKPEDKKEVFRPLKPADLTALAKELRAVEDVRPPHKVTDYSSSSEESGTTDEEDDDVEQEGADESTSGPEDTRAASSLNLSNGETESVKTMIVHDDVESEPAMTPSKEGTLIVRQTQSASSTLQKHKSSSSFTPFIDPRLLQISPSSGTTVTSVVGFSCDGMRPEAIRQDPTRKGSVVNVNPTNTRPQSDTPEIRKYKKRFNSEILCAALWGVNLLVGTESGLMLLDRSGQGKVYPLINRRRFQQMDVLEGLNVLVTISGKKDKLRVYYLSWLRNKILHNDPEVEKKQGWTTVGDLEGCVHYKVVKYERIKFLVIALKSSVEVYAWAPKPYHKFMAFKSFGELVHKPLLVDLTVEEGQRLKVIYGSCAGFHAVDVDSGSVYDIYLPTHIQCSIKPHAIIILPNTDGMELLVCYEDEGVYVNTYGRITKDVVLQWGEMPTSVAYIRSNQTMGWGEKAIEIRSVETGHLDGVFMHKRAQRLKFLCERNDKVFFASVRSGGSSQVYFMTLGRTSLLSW
Mitogen-activated protein kinase kinase kinase 9 (Homo sapiens), sequence (P80192 whole entry, looked up): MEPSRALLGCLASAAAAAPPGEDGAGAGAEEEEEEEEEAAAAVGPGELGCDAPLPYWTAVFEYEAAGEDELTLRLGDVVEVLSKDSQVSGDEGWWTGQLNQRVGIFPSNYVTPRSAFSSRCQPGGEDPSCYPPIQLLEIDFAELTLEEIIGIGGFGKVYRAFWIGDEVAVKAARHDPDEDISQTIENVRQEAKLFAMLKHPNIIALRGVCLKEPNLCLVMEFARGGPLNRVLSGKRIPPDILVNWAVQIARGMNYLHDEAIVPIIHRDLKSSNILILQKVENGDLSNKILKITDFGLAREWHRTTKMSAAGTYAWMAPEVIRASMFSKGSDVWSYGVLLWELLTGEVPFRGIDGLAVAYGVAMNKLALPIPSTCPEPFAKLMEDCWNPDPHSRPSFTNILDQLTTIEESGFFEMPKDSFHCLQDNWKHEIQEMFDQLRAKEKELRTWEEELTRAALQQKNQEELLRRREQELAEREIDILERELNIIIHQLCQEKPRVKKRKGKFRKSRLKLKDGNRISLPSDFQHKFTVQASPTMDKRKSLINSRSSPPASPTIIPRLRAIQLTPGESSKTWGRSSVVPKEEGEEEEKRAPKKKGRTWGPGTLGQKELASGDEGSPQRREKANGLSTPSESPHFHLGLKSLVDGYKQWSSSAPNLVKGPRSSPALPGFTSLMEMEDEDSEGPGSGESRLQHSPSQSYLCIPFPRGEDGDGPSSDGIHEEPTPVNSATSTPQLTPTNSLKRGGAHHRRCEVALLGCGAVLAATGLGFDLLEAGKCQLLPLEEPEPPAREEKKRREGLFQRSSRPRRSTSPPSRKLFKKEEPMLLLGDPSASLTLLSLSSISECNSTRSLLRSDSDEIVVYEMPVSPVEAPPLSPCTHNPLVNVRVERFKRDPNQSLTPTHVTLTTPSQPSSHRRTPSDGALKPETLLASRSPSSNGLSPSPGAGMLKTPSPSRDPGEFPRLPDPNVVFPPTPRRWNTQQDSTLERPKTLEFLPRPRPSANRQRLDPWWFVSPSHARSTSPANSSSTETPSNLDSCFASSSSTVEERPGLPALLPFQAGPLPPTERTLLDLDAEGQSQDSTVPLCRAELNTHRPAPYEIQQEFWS

Structure (SMILES) | residual activity [1] [%] | residual activity [2] [%] | % Inhibition of Control Specific Binding (Mean n=2) [3] [%] | residual activity [4] [%] | inhibition [5] [%] | residual activity [6] [%] | % Inhibition of Control Specific Binding (Mean n=2) [7] [%] | residual activity [8] [%] | residual activity [9] [%] | residual activity [10] [%] | residual activity [11] [%] | residual activity [12] [%] | residual activity [13] [%] | % Inhibition of Control Specific Binding (Mean n=2) [14] [%] | inhibition [15] [%] | residual activity [16] [%] | residual activity [17] [%] | % Inhibition of Control Specific Binding (Mean n=2) [18] [%] | inhibition [19] [%] | residual activity [20] [%] | also measured
COc1ccc2c(c1)O[C@@H](c1ccc(OC)c(OC)c1)C[C@H]2NC(=O)C1(c2ccc3c(c2)OC(F)(F)O3)CC1 [A-1596586] | 100 | 100 | 44.4 | 91 | 17.6 | 83 | -6.3 | 100 | 95 | 95 | 94 | 91 | 96 | 35.7 | 22.3 | 84 | 93 | 10.7 | 2.75 | 97 | residual activity [21]: 74%; residual activity [22]: 87%; residual activity [23]: 100%; residual activity [24]: 100%; residual activity [25]: 86%; % Inhibition of Control Specific Binding (Mean n=2) [26]: 11.5%; residual activity [27]: 89%; residual activity [28]: 90%; residual activity [29]: 100%; residual activity [30]: 90%; residual activity [31]: 97%; residual activity [32]: 82%
COc1ccc2c(c1)O[C@H](c1ccc(OC)c(OC)c1)C[C@@H]2NC(=O)C1(c2ccc3c(c2)OC(F)(F)O3)CC1 [A-1596584] | 93 | 100 | 92.1 | 99 | 14.9 | 56 | -6.4 | 100 | 97 | 98 | 100 | 100 | 96 | -0.7 | 49.9 | 100 | 100 | 26.4 | 0.16 | 100 | residual activity [21]: 74%; residual activity [22]: 100%; residual activity [23]: 100%; residual activity [24]: 100%; residual activity [25]: 100%; % Inhibition of Control Specific Binding (Mean n=2) [26]: 11.5%; residual activity [27]: 89%; residual activity [28]: 98%; residual activity [29]: 100%; residual activity [30]: 94%; residual activity [31]: 100%; residual activity [32]: 100%
